From patent EP0569777A2 (Bayer Corporation, priority 1992, dated 1993)
Entries after “also recorded” stand apart in the source; their conditions may differ.

What was measured:
[1] = test system: human brain P-2 derived aprotinin binding pool Y protease (chymotryptic-like serine protease); experiment: Immunoblot assay of APP degradation by the pool Y serine protease; assay type: biochemical; conditions: pool Y 14 ug/ml, APP 35 nM
Method: Reactions were initiated at 37°C by enzyme addition to achieve the following initial component concentrations in a 16 ul volume: pool Y # 3-5 (14 ug/ml) after purification on a superdex 75 column, APP (35 nM), in 30 mM Mes buffer pH 6.5. Reactions were terminated by addition of 7.5 ul of 3X sample buffer. Immunoblots were developed using the rabbit antiserum to the APP C-terminal domain according to example 8. […] The following controls were also run: no inhibitor (lane 12), ethanol (lane 3), methanol (lane 5), pool Y only (lane 2), APP only at time zero (lane 13) and 4 hr (lane 14). Lanes 1 and 7 respectively show prestained Mr markers and the C-100 standard. Panel (b) 1.8 uM alpha-1-antichymotrypsin (lane 2), 156 uM TLCK (lane 3), 46 uM chymotrypsin inhibitor I (lane 4), 119 uM chymotrypsin inhibitor II (lane 5), 4 uM alpha-2-antiplasmin (lane 6), 51 uM alpha-1-antitrypsin (lane 7), 98 uM chymostatin administered in DMSO (lane 10), 153 uM methanolic TPCK (lane 12). Controls included: no inhibitor (lane 8), DMSO (lane 11), and methanol (lane 13). Pre-stained molecular weight markers and C-100 standards were applied to lanes 1 and 9 respectively. Incubation times of 4 and 2 hr were used in panels a) and b) respectively.
• i) Sub-cellular fractionation. This was performed essentially as described in Method 1, above. • ii) Solubilization. This was performed essentially as described in Method 1, above. • iii) Aprotinin-sepharose chromatography. Soluble (230 mg), P-2 (216 mg) or microsomal fraction (47 mg) described above was applied to a column of aprotinin sepharose (Sigma, catalog # 42268, 1.5 X 10 cm), previously equilibrated with 20 mM Tris HCl buffer pH 7.0. Once loaded the column was washed with equilibration buffer (100 ml), and then eluted with 60 ml of 50 mM sodium acetate buffer pH 5.0 containing 500 mM sodium chloride. The flow rate was 1.0 ml/min throughout. Eluted fractions (4 ml) were monitored at 280 nm, analysed using the Bradford protein assay, and examined for APP C-terminal processing activity as described in Example 8, using recombinant APP derived by expression in a baculo virus system. […] Active fractions from the purification of the P-2 fraction on aprotinin-sepharose were pooled, dialyzed against 50 mM Tris-HCl pH 7.5 and applied to a mono-Q column (HR 5/5), previously equilibrated with dialysis buffer. Once loaded, the column was eluted essentially as described in Method 1. above. Active fractions (2 ml), were monitored for A 280 nm, total protein (Bradford assay), and for their capacity for baculo virus derived APP C-terminal processing. […] Pools X, Y, and Z were each concentrated to either 2 ml (pool X and Y) or 3.6 ml (pool z) and separately applied to a Superdex 75 column (Pharmacia, Piscataway NJ.) previously equilibrated with 50 mM Tris-HCl pH 7.5, containing 150 mM sodium chloride. Once loaded, the column was eluted with equilibration buffer. Chromatography was performed at a flow rate of 1.0 ml/min throughout. Fractions (1 ml) were monitored for A 280 nm, total protein (Bradford assay) and for C-terminal processing of baculo expressed APP. The gel filtration was calibrated by chromatography of each of the following standard proteins: Thyroglobulin (670 kDa), bovine gamma globulin (158 kDa), ovalbumin (44 kDa), myoglobin (17.5 kDa) and vitamin B 12 (1.35 kDa).

[2] = Mono-Q ion-exchange fractions of P-2, S and M subfractions of control and AD human cortex; conditions: 37°C, up to 24 hrs
C286.8A = experiment: Competitive EIA, peptide epitope mapping of monoclonal antibody C286.8A; assay type: binding, Murine; conditions: Figure 4; plates coated with 50 ng of synthetic APP 695 (597-638); C286.8A (80 ng of IgG) preincubated 60 min at room temperature with competitor peptide
Method: Following incubation for 60 min at room temperature, plates were washed, and the amount of bound antibody determined by development with horseradish peroxidase-coupled goat-anti mouse polyclonal antibody according to standard procedures (Wunderlich et al., 1992, J. of Immunol. Methods 147:1). Percent competition (% C) of antibody binding to the plate was calculated from the absorbance at 450 nm data using the following equation: % C = 1.0 -(O.D. (+ competitor) - O.D. blank)/(O.D. (- competitor) - O.D. blank)X 100 [formula]

P-2 enzyme (peak B) = P-2 enzyme (peak B) further purified on Superose 6HR (17.5 ug/ml) in acetate, Mes and Tris pH 5.0; conditions: human, 37 C, up to 24hr
[3] = test system: cathepsin D (human liver, Cal Biochem); experiment: Cathepsin D (2.8 ug/ml) in cocktail buffer 130 mM in each of acetate, Mes and Tris pH 5.0; conditions: 37 C, up to 24hr
cathepsin D = experiment: Cathepsin D (2.5 ug/ml), sodium chloride (75 mM), 135 mM in each of tris, Mes and acetate buffer pH 5.0; conditions: human, 37 C
P-2 peak B enzyme = P-2 peak B enzyme (7.5 ug/ml), sodium chloride (75 mM), 135 mM in each of tris, Mes and acetate buffer pH 5.0; conditions: human, 37 C
[4] = test system: human AD brain fraction P2 VII APP degrading activity; experiment: Immunoblot assay of APP 695 degradation by Mono-Q pool P2 VII; assay type: biochemical; conditions: trial A, PMSF 0.8mM, pH 6.5, 24 hrs, 37°C
Method: ii) Solubilization. The membranous control or AD subfractions (P-2 or M) were solubilized by adjusting to the following conditions: 2% (v/v) Triton X-100 containing 50 mM Tris HCl buffer, pH 7.5. After stirring at 4°C for 3.5 hrs, the suspensions were centrifuged at 105,000 g x 60 min in a Beckman 70 Ti rotor. The following final protein concentrations were used in solubilization, for P-2 (3.9 to 4.0 mg/ml); and for M (1.4 to 1.6 mg/ml). Solubilized supernatants were stored at -70°C for later use. The soluble fraction was not treated with detergent but rather was adjusted to 50 mM in Tris HCl, pH 7.5, by the addition of stock 1M buffer. iii) Ion-exchange chromatography. Chromatography was performed using a Gilson gradient liquid chromatograph (model 305 and 306 pumps) equipped with a 50 ml Rheodyne stainless steel loop injector model 7125, and connected to a Mono Q HR 10/10 column (Pharmacia, Piscataway, NJ). Absorbance of column effluent was monitored at 280 nm using a Pharmacia UV-M detector and a Kippen-zonen chart recorder. […] In the initial studies, eluted fractions were monitored for A280 nm, total protein (Bradford assay), and peptidase activity (as decsribed in Examples 2 and 3). […] Fractions were monitored for A 280 nm, total protein (Bradford assay), peptidase activity, and activity for C-terminal processing of recombinant APP. […]

## Cc1ccc(S(=O)(=O)N[C@@H](Cc2ccccc2)C(=O)CCl)cc1 [TPCK]
[1]; 153 uM methanolic TPCK, Mes pH 6.5, 2 hr, Figure 18b
  Inhibitor sensitivity of the pool Y protease (APP degradation): strongly inhibited

## N-dansyl-Ile-Ser-Glu-Val-Lys-Met-Asp-Ala-Glu-Phe-Arg-His-Asp-Asp-Asp-Asp
[2]
  cleaved bond: V-K, major and K-M and M-D and S-E and E-V

## Cc1ccc(S(=O)(=O)N[C@@H](CCCCN)C(=O)CCl)cc1 [TLCK]
[1]; 156 uM TLCK, Mes pH 6.5, 2 hr, Figure 18b
  Inhibitor sensitivity of the pool Y protease (APP degradation): did not inhibit at all

## APP 645-695: Synthetic peptide, amino acids 645-695 of human APP695, C-terminal domain, devoid of any beta-amyloid sequence (AADRGLTTRPGSGLTNIKTEEISEVKMDAEFRHDSGYEVHHQKLVFFAEDV; isoform APP695; UniProt P05067 645-695, looked up, fragment)
C286.8A
  ability to block binding of C286.8A to APP 597-638: did not inhibit binding

## N-Dansyl-Ile-Ser-Glu-Val-Lys-Met-Asp-Ala-Glu-Phe-Arg-NH2
P-2 enzyme (peak B)
  cleaved bond: Met-Asp, minor; also recorded: Glu-Val, major
[3]
  cleaved bond: Glu-Val, major; also recorded: Met-Asp, minor
Cathepsin D
  cleaved bond: E-V and M-D
P-2 peak B enzyme
  cleaved bond: E-V and M-D

## APP 621-631: Synthetic peptide, amino acids 621-631 of human APP695; beta-amyloid peptide sequence 25-35 (WHSFGADSVPA; isoform APP695; UniProt P05067 621-631, looked up, fragment)
C286.8A
  ability to block binding of C286.8A to APP 597-638: did not inhibit binding

## CC(C)C[C@H](NC(=O)[C@@H](NC(=O)N[C@@H](Cc1ccccc1)C(=O)O)[C@@H]1CCN=C(N)N1)C(=O)N[C@H](C=O)Cc1ccccc1 [chymostatin]
[1]; 98 uM chymostatin administered in DMSO, Mes pH 6.5, 2 hr, Figure 18b
  Inhibitor sensitivity of the pool Y protease (APP degradation): Weak inhibition

## CC(C)CC(NC(=O)C1OC1C(=O)O)C(=O)NCCCCN=C(N)N (stereo not shown) [E-64]
[1]; 350 uM E-64, Mes pH 6.5, 4 hr, Figure 18a
  Inhibitor sensitivity of the pool Y protease (APP degradation): unaffected

## APP 597-612: Synthetic peptide containing amino acids 597-612 of human APP695; amino acids 1-16 of the beta-amyloid sequence (LTETKTTVELLPVNGE; isoform APP695; UniProt P05067 597-612, looked up, fragment)
C286.8A
  ability to block binding of C286.8A to APP 597-638: able to inhibit C286.8A binding in a dose-dependent fashion

## APP 608-624: Synthetic peptide, amino acids 608-624 of human APP695; beta-amyloid peptide sequence 12-28 (PVNGEFSLDDLQPWHSF; isoform APP695; UniProt P05067 608-624, looked up, fragment)
C286.8A
  ability to block binding of C286.8A to APP 597-638: did not inhibit binding

## 597-638: Synthetic peptide containing amino acids 597-638 of human APP695; amino acids 1-42 of the beta-amyloid sequence
C286.8A
  ability to block binding of C286.8A to APP 597-638: able to inhibit C286.8A binding in a dose-dependent fashion

## 597-624: Synthetic peptide containing amino acids 597-624 of human APP695; amino acids 1-28 of the beta-amyloid sequence (LTETKTTVELLPVNGEFSLDDLQPWHSF; isoform APP695; UniProt P05067 597-624, looked up, fragment)
C286.8A
  ability to block binding of C286.8A to APP 597-638: able to inhibit C286.8A binding in a dose-dependent fashion

## N=C(N)c1ccccc1 [benzamidine]
[1]; 5 mM benzamidine, Mes pH 6.5, 4 hr, Figure 18a
  Inhibitor sensitivity of the pool Y protease (APP degradation): without effect

## O=S(=O)(F)Cc1ccccc1 [PMSF]
[1]; 860 uM PMSF in methanol, Mes pH 6.5, 4 hr, Figure 18a
  Inhibitor sensitivity of the pool Y protease (APP degradation): inhibited
[4]; 11.5 kDa fragment
  Inhibitors (pH 6.5): compounds causing complete inhibition are listed: PMSF
[4]; >11.5 kDa fragment
  Inhibitors (pH 6.5): compounds causing complete inhibition are listed: PMSF
